For series [1], the target named is NMDA receptors comprised of NR1/NR2B subunits (Homo sapiens, UniProt Q05586+Q13224). The following applies: selectivity between NMDA receptor subtypes; cited from earlier work.
Series [2] has as its system animal models of pain perception. The following applies: literature (Bernardi 1996; Taniguchi 1997); cited from earlier work.
Series [3] deals with static and dynamic allodynia in rats (paw incision model). Briefly: Paw incision model for surgical pain, pre-surgery administration. The format is in vivo, rat. The following applies: for PWL (paw withdrawal latency) compared to vehicle / PWT (paw withdrawal threshold) compared to vehicle: 72 hours, pre-surgical 10 and 30 mg/kg CP-101,606, pregabalin 30 mg/kg s.c. The text has this: (§1) Basically, in this animal model, an incision is made in the hind paw of the rats, which induces a reproducible and quantifiable mechanical hyperalgesia in the rats lasting several days. Rats are anesthetized, and the plantar surface of the right hind paw of each rat is incised through the skin and fascia. The wound is then closed, for example with sutures, and allowed to heal. The rats are placed into wire mesh bottom cages, allowing access to the underside of their paws. After habituation, tactile allodynia (or “static allodynia”) can be evaluated by touching the right hind paw plantar surface with von Frey hairs in ascending order of force (measured in grams) until a paw-withdrawal response (paw withdrawal threshold or “PWT”) is elicited. Dynamic allodynia can be evaluated by stoking the plantar surface of the right hind paw and measuring (in seconds) the amount of time it takes for a rat to withdraw its paw (paw withdrawal latency or “PWL”).
In the pre-surgery administration assay, a PWT and PWL baseline is measured prior to drug administration and incision. The rats are then given drug (CP-101,606, at separate doses of 3, 10 or 30 mg/kg s.c.) or are given pregabalin (30 mg/kg s.c., as a positive control)), or vehicle (s.c.). The right hind paw each rat is then incised as described above. Measurements are then taken periodically, as described above.

The test system is the same in series [4]. Briefly: Paw incision model for surgical pain, post-surgery administration. It counts as in vivo, rat.
Description: as §1
CP-101,606 was also tested post-surgically using the paw incision model, basically as described above. However, in this assay, rats are administered CP-101,606 (3, 10, or 30 mg/kg, s.c.), pregabalin (30 mg/kg, s.c.), or vehicle (s.c.) post-incision. A baseline is measured before incision and after incision, prior to drug. […] CP-101,606 produced a full reversal of static allodynia and a partial (approximately 40%) reversal of the dynamic subtype.

Where [5] appears, read: pre-surgery administration, 30 mg/kg s.c.
Setting [6] is: pre-surgery administration, s.c.
[7] abbreviates: post-incision administration, 30 mg/kg s.c.
[8] abbreviates: post-incision administration, s.c.

One may read the melting point as the temperature, or range, at which the solid turns liquid.

Sequence of NMDA receptors comprised of NR1/NR2B subunits (Q13224 27-1484, other chains not shown): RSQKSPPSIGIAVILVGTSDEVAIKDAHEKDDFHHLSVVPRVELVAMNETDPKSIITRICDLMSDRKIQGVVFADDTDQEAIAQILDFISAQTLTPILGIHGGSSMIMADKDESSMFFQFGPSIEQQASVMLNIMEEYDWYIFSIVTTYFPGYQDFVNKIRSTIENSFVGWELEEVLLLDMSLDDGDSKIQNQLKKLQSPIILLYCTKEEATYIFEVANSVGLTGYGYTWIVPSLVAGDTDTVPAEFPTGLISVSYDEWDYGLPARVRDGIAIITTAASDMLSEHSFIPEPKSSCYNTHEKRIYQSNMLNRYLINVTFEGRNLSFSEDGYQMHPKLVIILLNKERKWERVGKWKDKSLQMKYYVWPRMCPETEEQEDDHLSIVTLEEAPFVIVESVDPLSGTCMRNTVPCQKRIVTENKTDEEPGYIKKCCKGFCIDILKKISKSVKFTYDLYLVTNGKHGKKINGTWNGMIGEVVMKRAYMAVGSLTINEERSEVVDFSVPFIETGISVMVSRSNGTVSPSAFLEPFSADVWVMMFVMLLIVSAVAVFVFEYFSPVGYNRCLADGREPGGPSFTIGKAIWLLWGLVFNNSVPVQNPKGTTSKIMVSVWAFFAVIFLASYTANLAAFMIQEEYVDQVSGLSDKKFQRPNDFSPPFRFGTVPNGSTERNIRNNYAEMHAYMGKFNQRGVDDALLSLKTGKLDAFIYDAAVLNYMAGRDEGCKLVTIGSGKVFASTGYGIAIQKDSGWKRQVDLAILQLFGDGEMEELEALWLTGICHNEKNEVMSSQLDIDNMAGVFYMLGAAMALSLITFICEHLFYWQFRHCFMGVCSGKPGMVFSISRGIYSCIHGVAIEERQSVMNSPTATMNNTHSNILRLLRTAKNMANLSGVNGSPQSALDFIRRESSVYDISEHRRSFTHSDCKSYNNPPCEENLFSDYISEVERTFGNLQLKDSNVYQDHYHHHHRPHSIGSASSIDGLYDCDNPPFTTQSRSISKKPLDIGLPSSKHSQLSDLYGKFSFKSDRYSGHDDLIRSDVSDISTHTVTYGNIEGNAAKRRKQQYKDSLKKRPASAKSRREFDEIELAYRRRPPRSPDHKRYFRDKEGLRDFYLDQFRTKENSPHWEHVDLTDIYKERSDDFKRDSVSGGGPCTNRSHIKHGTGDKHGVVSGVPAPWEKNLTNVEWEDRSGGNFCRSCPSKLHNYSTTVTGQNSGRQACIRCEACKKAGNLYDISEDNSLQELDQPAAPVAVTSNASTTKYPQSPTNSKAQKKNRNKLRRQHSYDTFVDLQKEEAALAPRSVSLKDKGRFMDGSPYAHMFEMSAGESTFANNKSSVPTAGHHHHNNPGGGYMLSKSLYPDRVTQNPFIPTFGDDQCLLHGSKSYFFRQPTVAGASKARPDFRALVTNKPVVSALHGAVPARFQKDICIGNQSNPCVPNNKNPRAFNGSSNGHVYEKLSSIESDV

Regarding `CC(C(O)c1ccc(O)cc1)N1CCC(Cc2ccccc2)CC1` (stereo not drawn) [Ifenprodil, ifenprodil], in series [1], the “blockade of ion current, NR1/NR2B compared to NR1/NR2A, NR2C, or NR2D subunits” value is “more potent and efficacious”. The analgesic activity entry in series [2] is “significant analgesic activity”.

For `C[C@@H]([C@@H](O)c1ccc(O)cc1)N1CCC(O)(c2ccccc2)CC1` [CP-101,606, (+)-(1S, 2S)-1-(4-hydroxy-phenyl)-2-(4-hydroxy-4-phenylpiperidino)-1-propanol], in series [3], the “PWL (paw withdrawal latency) compared to vehicle” value is listed as “longer” and the “PWT (paw withdrawal threshold) compared to vehicle” value is given as “higher”. For the same compound, in series [3] (following pre-surgical administration), the “duration of antiallodynic action” value is “at least 48 hours”. Also, the “latest time at which a preventive effect was seen” value in series [3] (post surgery, pre-surgical administration) stood at 72 h. In addition, in series [3] (setting [5]), the “time of peak effect, dynamic allodynia” value is listed as “two” and the “time of peak effect, static allodynia” value was “two”. For the same compound, the “effect on static and dynamic subtypes of allodynia” value in series [3] (pre-surgery administration, 3, 10 or 30 mg/kg s.c., rats) is “dose-dependently blocked both static and dynamic subtypes of allodynia”. Moreover, in series [3] (setting [6]), the “blockade of dynamic allodynia” value is given as “near full blockade” and the “blockade of static allodynia” value is given as “full blockade”. Moreover, the “MED (minimum effective dosage), dynamic allodynia” value in series [3] (pre-surgery administration, s.c., PWL) turned out to be 10 mg/kg. For the same compound, in series [3] (pre-surgery administration, s.c., PWT (von Frey hairs)), the “MED (minimum effective dosage), static allodynia” value came to 10 mg/kg. In series [4] (setting [7]), the “duration of effect, dynamic allodynia” value is reported as “two”; the “duration of effect, static allodynia” value is recorded as “three”; the “time of peak effect, dynamic allodynia” value is on record as “two”. Moreover, in series [4] (post-incision administration, 3, 10 or 30 mg/kg s.c., rats), the “effect on static and dynamic subtypes of allodynia” value was “dose-dependently diminished both static and dynamic subtypes of allodynia”. Besides, in series [4] (setting [8]), the “MED, dynamic allodynia” value is reported as 30 mg/kg; the “MED, static allodynia” value was 10 mg/kg; the “reversal of static allodynia” value is on record as “full reversal”. Further, the “reversal of dynamic allodynia” value in series [4] (post-incision administration, s.c., partial reversal) is reported as “approximately 40%”.

Take `CC(C)C[C@H](CN)CC(=O)O` [pregabalin, reference compound]: in series [3], the “PWL (paw withdrawal latency) compared to vehicle” value is given as “longer” and the “PWT (paw withdrawal threshold) compared to vehicle” value is recorded as “higher”.

On to `Oc1ccc2c(c1)OC[C@@H](N1CCC(O)(c3ccc(F)cc3)CC1)[C@H]2O` (relative stereo), for which the melting point is 159 to 160 °C.

These data come from US20020072485A1, “Prophylactic use of N-methyl-D-aspartate (NMDA) antagonists” (priority 2000, published 2002).
